In patent US10538555B2, “Macrocyclic inhibitors of the PD-1/PD-L1 and CD80(B7-1)/PD-L1 protein/protein interactions” (BRISTOL-MYERS SQUIBB COMPANY, priority 2014, dated 2020) one finds IC50 data, which are given here for eleven compounds.

In this assay the target is T1, Human PD-L1/PD-1 (Homo sapiens, UniProt Q9NZQ7).
T1 construct: TVMV protease cleavage site (C); made in house; host or cells: HEK293T cells
As to the kind of experiment: HTRF Human PD-L1/PD-1 binding assay (PD-1-Ig/PD-L1-His). Particulars: PD-L1-His 10 nM, PD-1-Ig 20 nM. A digest of the protocol:
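Truncated Fc-fused human PD-1 (aa 25-167) at 20 nM and His-tagged PD-L1 (aa 18-239) at 10 nM final are used, with peptides preincubated 15 min with PD-L1. Detection uses europium-cryptate anti-Ig and APC anti-His antibodies; 665/620 nm ratio.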

Setting [1] is: class symbol, read-out: HTRF Human PD-L1/PD-1 Binding Assay IC50 Range.

Where two headings read alike, the source gives them in different places. Where a SMILES comes first, the peptide text is derived from it. Bridges are numbered along the chain shown (N, C = ends). [ ]: non-standard residue; d: D form. Phe(3,4-F2) = N[C@@H](Cc1ccc(F)c(F)c1)C(=O)O; dPro(4S-Me) = C[C@@H]1CN[C@@H](C(=O)O)C1; Phe(4-F) = N[C@@H](Cc1ccc(F)cc1)C(=O)O; NMeF = CN[C@@H](Cc1ccccc1)C(=O)O; dNMeF = CN[C@H](Cc1ccccc1)C(=O)O; dHyp = O=C(O)[C@H]1C[C@H](O)CN1; NMehSer = CN[C@@H](CCO)C(=O)O; NMeNle = CCCC[C@H](NC)C(=O)O; dPip = O=C(O)[C@H]1CCCCN1; Orn = NCCC[C@H](N)C(=O)O

T1 sequence (Q9NZQ7 with tags, fused parts or gaps): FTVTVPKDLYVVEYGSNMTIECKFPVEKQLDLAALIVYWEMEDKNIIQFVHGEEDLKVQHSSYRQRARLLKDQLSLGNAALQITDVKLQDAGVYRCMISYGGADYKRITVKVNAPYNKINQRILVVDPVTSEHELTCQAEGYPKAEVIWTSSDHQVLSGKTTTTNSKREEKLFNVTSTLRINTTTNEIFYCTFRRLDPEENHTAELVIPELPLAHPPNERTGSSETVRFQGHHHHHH

As to `CCCC[C@H]1C(=O)N2CCC[C@@H]2C(=O)N[C@@H](CC(=O)O)C(=O)N[C@@H](C(C)C)C(=O)N(C)[C@@H](CCOC)C(=O)N[C@@H](Cc2ccc(O)cc2)C(=O)N2CCC[C@@H]2C(=O)N[C@@H](Cc2c[nH]c3ccccc23)C(=O)N[C@@H](Cc2ccc(O)cc2)C(=O)N[C@@H](CC(C)C)C(=O)N[C@H](C(=O)NCC(N)=O)CSCC(=O)N[C@@H](Cc2ccc(F)cc2)C(=O)N(C)[C@@H](Cc2ccccc2)C(=O)N1C` [Example 9219] ({CH2CO}-[Phe(4-F)][NMeF][NMeNle][dP]DV[NMehSer](Me)Y[dP]WYLCG-NH2; thioether N-13), the IC50 under setting [1] fell in the range of 100 to 990 nM.

`CCCC[C@H]1C(=O)N2CCC[C@@H]2C(=O)N[C@@H](CC(=O)O)C(=O)N[C@@H](C(C)C)C(=O)N(C)[C@@H](CCOC)C(=O)N[C@@H](Cc2ccc(O)cc2)C(=O)N2CCCC[C@@H]2C(=O)N[C@@H](Cc2c[nH]c3ccccc23)C(=O)N[C@@H](Cc2ccc(O)cc2)C(=O)N[C@@H](CC(C)C)C(=O)N[C@H](C(=O)NCC(N)=O)CSCC(=O)N[C@@H](Cc2ccc(F)cc2)C(=O)N(C)[C@@H](Cc2ccccc2)C(=O)N1C` [Example 9220] ({CH2CO}-[Phe(4-F)][NMeF][NMeNle][dP]DV[NMehSer](Me)Y[dPip]WYLCG-NH2; thioether N-13): under setting [1], the IC50 was 100 to 990 nM.

On to `CCCC[C@H]1C(=O)N2CCC[C@@H]2C(=O)N[C@@H](CC(=O)O)C(=O)N[C@@H](C(C)C)C(=O)N(C)[C@@H](CCOC)C(=O)N[C@@H](Cc2ccc(O)cc2)C(=O)N2CCC[C@@H]2C(=O)N[C@@H](Cc2c[nH]c3ccccc23)C(=O)N[C@@H](Cc2ccc(O)cc2)C(=O)N[C@@H](CCCN)C(=O)N[C@H](C(=O)NCC(N)=O)CSCC(=O)N[C@@H](Cc2ccc(F)cc2)C(=O)N(C)[C@@H](Cc2ccccc2)C(=O)N1C` [Example 9221] ({CH2CO}-[Phe(4-F)][NMeF][NMeNle][dP]DV[NMehSer](Me)Y[dP]WY[Orn]CG-NH2; thioether N-13), for which, under setting [1], the IC50 was 100 to 990 nM.

With `CCCC[C@H]1C(=O)N2CCC[C@@H]2C(=O)N[C@@H](CC(=O)O)C(=O)N[C@@H](C(C)C)C(=O)N(C)[C@@H](CCOC)C(=O)N[C@@H](Cc2ccc(O)cc2)C(=O)N2CCCC[C@@H]2C(=O)N[C@@H](Cc2c[nH]c3ccccc23)C(=O)N[C@@H](Cc2ccc(O)cc2)C(=O)N[C@@H](CCCN)C(=O)N[C@H](C(=O)NCC(N)=O)CSCC(=O)N[C@@H](Cc2ccc(F)cc2)C(=O)N(C)[C@@H](Cc2ccccc2)C(=O)N1C` [Example 9222] ({CH2CO}-[Phe(4-F)][NMeF][NMeNle][dP]DV[NMehSer](Me)Y[dPip]WY[Orn]CG-NH2; thioether N-13), for the setting “read-out: HTRF Human PD-L1/PD-1 Binding Assay IC50”, the IC50 was found to be 144 nM.

On to `CCCC[C@H]1C(=O)N2CCC[C@@H]2C(=O)N[C@@H](CC(=O)O)C(=O)N[C@@H](C(C)C)C(=O)N(C)[C@@H](CCOC)C(=O)N[C@@H](CCC(N)=O)C(=O)N2CCC[C@@H]2C(=O)N[C@@H](Cc2c[nH]c3ccccc23)C(=O)N[C@@H](Cc2ccc(O)cc2)C(=O)N[C@@H](CC(C)C)C(=O)N[C@H](C(=O)NCC(N)=O)CSCC(=O)N[C@@H](Cc2ccc(F)cc2)C(=O)N(C)[C@@H](Cc2ccccc2)C(=O)N1C` [Example 9223] ({CH2CO}-[Phe(4-F)][NMeF][NMeNle][dP]DV[NMehSer](Me)Q[dP]WYLCG-NH2; thioether N-13), for which, under setting [1], the IC50 lay in the range of 100 to 990 nM.

Consider `CCCC[C@H]1C(=O)N2CCC[C@@H]2C(=O)N[C@@H](CC(=O)O)C(=O)N[C@@H](C(C)C)C(=O)N(C)[C@@H](CCOC)C(=O)N[C@@H](CCC(N)=O)C(=O)N2CCCC[C@@H]2C(=O)N[C@@H](Cc2c[nH]c3ccccc23)C(=O)N[C@@H](Cc2ccc(O)cc2)C(=O)N[C@@H](CC(C)C)C(=O)N[C@H](C(=O)NCC(N)=O)CSCC(=O)N[C@@H](Cc2ccc(F)cc2)C(=O)N(C)[C@@H](Cc2ccccc2)C(=O)N1C` [Example 9224] ({CH2CO}-[Phe(4-F)][NMeF][NMeNle][dP]DV[NMehSer](Me)Q[dPip]WYLCG-NH2; thioether N-13), for which, under setting [1], the IC50 was 100 to 990 nM.

Take `CCCC[C@H]1C(=O)N2C[C@@H](O)C[C@@H]2C(=O)N[C@@H](CC(=O)O)C(=O)N[C@@H](C(C)C)C(=O)N(C)[C@@H](Cc2ccccc2)C(=O)N[C@@H](Cc2ccc(OC)cc2)C(=O)N2C[C@@H](O)C[C@@H]2C(=O)N[C@@H](Cc2c[nH]c3ccccc23)C(=O)N[C@@H](Cc2ccc(O)cc2)C(=O)N[C@@H](CC(C)C)C(=O)N[C@H](C(=O)NCC(N)=O)CSCC(=O)N[C@@H](Cc2ccc(F)c(F)c2)C(=O)N(C)[C@@H](Cc2ccccc2)C(=O)N1C` [Example 9225] ({CH2CO}-[Phe(3,4-F2)][NMeF][NMeNle][dHyp]DV[NMeF]Y(Me)[dHyp]WYLCG-NH2; thioether N-13): the IC50 under setting [1] is 1 to 9.9 nM.

`CCCC[C@H]1C(=O)N2C[C@@H](O)C[C@@H]2C(=O)N[C@@H](CC(=O)O)C(=O)N[C@@H](C(C)C)C(=O)N(C)[C@H](Cc2ccccc2)C(=O)N[C@@H](Cc2ccc(OC)cc2)C(=O)N2C[C@@H](O)C[C@@H]2C(=O)N[C@@H](Cc2c[nH]c3ccccc23)C(=O)N[C@@H](Cc2ccc(O)cc2)C(=O)N[C@@H](CC(C)C)C(=O)N[C@H](C(=O)NCC(N)=O)CSCC(=O)N[C@@H](Cc2ccc(F)c(F)c2)C(=O)N(C)[C@@H](Cc2ccccc2)C(=O)N1C` [Example 9226] ({CH2CO}-[Phe(3,4-F2)][NMeF][NMeNle][dHyp]DV[dNMeF]Y(Me)[dHyp]WYLCG-NH2; thioether N-13): under setting [1], the IC50 is 10 to 99.9 nM.

On to `CCCC[C@H]1C(=O)N2C[C@@H](O)C[C@@H]2C(=O)N[C@@H](CC(=O)O)C(=O)N[C@@H](C(C)C)C(=O)N(C)[C@@H](Cc2ccccc2)C(=O)N[C@@H](Cc2ccc(O)cc2)C(=O)N2C[C@@H](O)C[C@@H]2C(=O)N[C@@H](Cc2c[nH]c3ccccc23)C(=O)N[C@@H](Cc2ccc(O)cc2)C(=O)N[C@@H](CC(C)C)C(=O)N[C@H](C(=O)NCC(N)=O)CSCC(=O)N[C@@H](Cc2ccc(F)c(F)c2)C(=O)N(C)[C@@H](Cc2ccccc2)C(=O)N1C` [Example 9227] ({CH2CO}-[Phe(3,4-F2)][NMeF][NMeNle][dHyp]DV[NMeF]Y[dHyp]WYLCG-NH2; thioether N-13), for which the IC50 under setting [1] lay in the range of 1 to 9.9 nM.

For the compound `CCCC[C@H]1C(=O)N2C[C@@H](O)C[C@@H]2C(=O)N[C@@H](CC(=O)O)C(=O)N[C@@H](C(C)C)C(=O)N(C)[C@H](Cc2ccccc2)C(=O)N[C@@H](Cc2ccc(O)cc2)C(=O)N2C[C@@H](O)C[C@@H]2C(=O)N[C@@H](Cc2c[nH]c3ccccc23)C(=O)N[C@@H](Cc2ccc(O)cc2)C(=O)N[C@@H](CC(C)C)C(=O)N[C@H](C(=O)NCC(N)=O)CSCC(=O)N[C@@H](Cc2ccc(F)c(F)c2)C(=O)N(C)[C@@H](Cc2ccccc2)C(=O)N1C` [Example 9228] ({CH2CO}-[Phe(3,4-F2)][NMeF][NMeNle][dHyp]DV[dNMeF]Y[dHyp]WYLCG-NH2; thioether N-13), the IC50 under setting [1] lay within 10 to 99.9 nM.

Consider `CCCC[C@H]1C(=O)N2C[C@@H](C)C[C@@H]2C(=O)N[C@@H](CC(=O)O)C(=O)N[C@@H](C(C)C)C(=O)N(C)[C@@H](Cc2ccccc2)C(=O)N[C@@H](Cc2ccc(OC)cc2)C(=O)N2C[C@@H](O)C[C@@H]2C(=O)N[C@@H](Cc2c[nH]c3ccccc23)C(=O)N[C@@H](Cc2ccc(O)cc2)C(=O)N[C@@H](CCCN)C(=O)N[C@H](C(=O)NCC(N)=O)CSCC(=O)N[C@@H](Cc2ccc(F)c(F)c2)C(=O)N(C)[C@@H](Cc2ccccc2)C(=O)N1C` [Example 9229] ({CH2CO}-[Phe(3,4-F2)][NMeF][NMeNle][dPro(4S-Me)]DV[NMeF]Y(Me)[dHyp]WY[Orn]CG-NH2; thioether N-13), for which the IC50 under setting [1] is 1 to 9.9 nM.
